ChEMBL document CHEMBL3352489, “6-Hydroxyquinolinium salts differing in the length of alkyl side-chain: synthesis and antimicrobial activity” (Bioorg Med Chem Lett, 2014)

Columns and labels:
[1] = tested on: Klebsiella pneumoniae; assay: microbe, parasite or virus in culture; type: functional; conditions: D 11750/08, 24 h
Description: Antibacterial activity against Klebsiella pneumoniae D 11750/08 after 24 hrs by microdilution broth method

[2] = tested on: Trichosporon asahii; assay: Fungicidal activity against Trichosporon asahii 1188 after 48 hrs by modified standard CSLI M27-A2 method; type: functional; conditions: Trichosporon asahii, 1188, 48 h
[3] = tested on: Pichia kudriavzevii; assay: Fungicidal activity against Candida krusei E28 after 48 hrs by modified standard CSLI M27-A2 method; type: functional; conditions: E28, 48 h
[4] = tested on: Candida albicans; assay: microbe, parasite or virus in culture; type: functional; conditions: ATCC 44859, 48 h
Description: Antifungal activity against Candida albicans ATCC 44859 after 48 hrs by modified standard CSLI M27-A2 method

[5] = tested on: Pichia kudriavzevii; assay: Antifungal activity against Candida krusei E28 after 48 hrs by modified standard CSLI M27-A2 method; type: functional; conditions: E28, 48 h
[6] = tested on: Nakaseomyces glabratus; assay: Antifungal activity against Candida glabrata 20/I after 48 hrs by modified standard CSLI M27-A2 method; type: functional
[7] = tested on: Staphylococcus aureus; assay: microbe, parasite or virus in culture; type: functional; conditions: CCM 4516/08, 24 h
Description: Antibacterial activity against Staphylococcus aureus CCM 4516/08 after 24 hrs by microdilution broth method

[8] = tested on: Candida tropicalis; assay: microbe, parasite or virus in culture; type: functional; conditions: Candida tropicalis, 156, 48 h
Description: Antifungal activity against Candida tropicalis 156 after 48 hrs by modified standard CSLI M27-A2 method

[9] = tested on: Pseudomonas aeruginosa; assay: microbe, parasite or virus in culture; type: functional; conditions: CCM 1961, 72 h
Description: Antibacterial activity against Pseudomonas aeruginosa CCM 1961 after 72 hrs by microdilution broth method

[10] = Retention time of the compound by gradient elution based HPLC method; type: physicochemical
[11] = Retention time of the compound by isocratic elution based HPLC method; type: physicochemical
[12] = tested on: Candida tropicalis; assay: Fungicidal activity against Candida tropicalis 156 after 48 hrs by modified standard CSLI M27-A2 method; type: functional; conditions: Candida tropicalis, 156, 48 h
[13] = tested on: Trichophyton mentagrophytes; assay: microbe, parasite or virus in culture; type: functional; conditions: Trichophyton mentagrophytes, 445, 72 h
Description: Antifungal activity against Trichophyton mentagrophytes 445 after 72 hrs by modified standard CSLI M27-A2 method

[14] = tested on: Escherichia coli; assay: microbe, parasite or virus in culture; type: functional; conditions: CCM 4517, 24 h
Description: Antibacterial activity against Escherichia coli CCM 4517 after 24 hrs by microdilution broth method

[15] = tested on: Candida albicans; assay: microbe, parasite or virus in culture; type: functional; conditions: ATCC 44859, 24 h
Description: Antifungal activity against Candida albicans ATCC 44859 after 24 hrs by modified standard CSLI M27-A2 method

[16] = tested on: Pseudomonas aeruginosa; assay: microbe, parasite or virus in culture; type: functional; conditions: CCM 1961, 120 h
Description: Antibacterial activity against Pseudomonas aeruginosa CCM 1961 after 120 hrs by microdilution broth method

[17] = tested on: Aspergillus fumigatus; assay: Fungicidal activity against Aspergillus fumigatus 231 after 48 hrs by modified standard CSLI M27-A2 method; type: functional; conditions: Aspergillus fumigatus, 231, 48 h
[18] = tested on: Trichophyton mentagrophytes; assay: Fungicidal activity against Trichophyton mentagrophytes 445 after 120 hrs by modified standard CSLI M27-A2 method; type: functional; conditions: Trichophyton mentagrophytes, 445, 120 h
[19] = tested on: Pichia kudriavzevii; assay: Antifungal activity against Candida krusei E28 after 24 hrs by modified standard CSLI M27-A2 method; type: functional; conditions: E28, 24 h
[20] = tested on: Lichtheimia corymbifera; assay: Fungicidal activity against Absidia corymbifera 272 after 48 hrs by modified standard CSLI M27-A2 method; type: functional; conditions: Lichtheimia corymbifera, 272, 48 h
[21] = tested on: Staphylococcus aureus; assay: microbe, parasite or virus in culture; type: functional; conditions: H 5996/08, 24 h
Description: Antibacterial activity against Staphylococcus aureus H 5996/08 after 24 hrs by microdilution broth method

[22] = tested on: Enterococcus sp.; assay: Bactericidal activity against Enterococcus sp. J 14365/08 after 48 hrs by microdilution broth method; type: functional; conditions: J 14365/08, 48 h, read-out: MBC>99.9
[23] = tested on: Aspergillus fumigatus; assay: microbe, parasite or virus in culture; type: functional; conditions: Aspergillus fumigatus, 231, 24 h
Description: Antifungal activity against Aspergillus fumigatus 231 after 24 hrs by modified standard CSLI M27-A2 method

[24] = tested on: Staphylococcus epidermidis; assay: Bactericidal activity against Staphylococcus epidermidis H 6966/08 after 48 hrs by microdilution broth method; type: functional; conditions: H 6966/08, 48 h, read-out: MBC>99.9
[25] = tested on: Klebsiella pneumoniae; assay: Bactericidal activity against Klebsiella pneumoniae J 14368/08 after 48 hrs by microdilution broth method; type: functional; conditions: J 14368/08, 48 h, read-out: MBC>99.9
[26] = tested on: Klebsiella pneumoniae; assay: Bactericidal activity against Klebsiella pneumoniae D 11750/08 after 24 hrs by microdilution broth method; type: functional; conditions: D 11750/08, 24 h, read-out: MBC>99.9
[27] = tested on: Staphylococcus aureus; assay: Bactericidal activity against Staphylococcus aureus H 5996/08 after 48 hrs by microdilution broth method; type: functional; conditions: H 5996/08, 48 h, read-out: MBC>99.9
[28] = tested on: Staphylococcus epidermidis; assay: microbe, parasite or virus in culture; type: functional; conditions: H 6966/08, 48 h
Description: Antibacterial activity against Staphylococcus epidermidis H 6966/08 after 48 hrs by microdilution broth method

[29] = tested on: Candida albicans; assay: Fungicidal activity against Candida albicans ATCC 44859 after 48 hrs by modified standard CSLI M27-A2 method; type: functional; conditions: ATCC 44859, 48 h
[30] = tested on: Aspergillus fumigatus; assay: microbe, parasite or virus in culture; type: functional; conditions: Aspergillus fumigatus, 231, 48 h
Description: Antifungal activity against Aspergillus fumigatus 231 after 48 hrs by modified standard CSLI M27-A2 method

[31] = tested on: Lichtheimia corymbifera; assay: microbe, parasite or virus in culture; type: functional; conditions: Lichtheimia corymbifera, 272, 24 h
Description: Antifungal activity against Absidia corymbifera 272 after 24 hrs by modified standard CSLI M27-A2 method

[32] = tested on: Klebsiella pneumoniae; assay: microbe, parasite or virus in culture; type: functional; conditions: J 14368/08, 48 h
Description: Antibacterial activity against Klebsiella pneumoniae J 14368/08 after 48 hrs by microdilution broth method

[33] = tested on: Lichtheimia corymbifera; assay: microbe, parasite or virus in culture; type: functional; conditions: Lichtheimia corymbifera, 272, 48 h
Description: Antifungal activity against Absidia corymbifera 272 after 48 hrs by modified standard CSLI M27-A2 method

[34] = tested on: Staphylococcus aureus; assay: Bactericidal activity against Staphylococcus aureus CCM 4516/08 after 48 hrs by microdilution broth method; type: functional; conditions: CCM 4516/08, 48 h, read-out: MBC>99.9
[35] = Cytotoxicity against CHOK1 cells after 24 hrs by MTT assay; type: ADME, cell-based; conditions: Cricetulus griseus, CHO-K1, 24 h
[36] = tested on: Staphylococcus aureus; assay: microbe, parasite or virus in culture; type: functional; conditions: H 5996/08, 48 h
Description: Antibacterial activity against Staphylococcus aureus H 5996/08 after 48 hrs by microdilution broth method

[37] = tested on: Trichosporon asahii; assay: microbe, parasite or virus in culture; type: functional; conditions: Trichosporon asahii, 1188, 48 h
Description: Antifungal activity against Trichosporon asahii 1188 after 48 hrs by modified standard CSLI M27-A2 method

[38] = tested on: Enterococcus sp.; assay: microbe, parasite or virus in culture; type: functional; conditions: J 14365/08, 48 h
Description: Antibacterial activity against Enterococcus sp. J 14365/08 after 48 hrs by microdilution broth method

[39] = tested on: Escherichia coli; assay: microbe, parasite or virus in culture; type: functional; conditions: CCM 4517, 48 h
Description: Antibacterial activity against Escherichia coli CCM 4517 after 48 hrs by microdilution broth method

[40] = tested on: Enterococcus sp.; assay: microbe, parasite or virus in culture; type: functional; conditions: J 14365/08, 24 h
Description: Antibacterial activity against Enterococcus sp. J 14365/08 after 24 hrs by microdilution broth method

[41] = tested on: Candida tropicalis; assay: microbe, parasite or virus in culture; type: functional; conditions: Candida tropicalis, 156, 24 h
Description: Antifungal activity against Candida tropicalis 156 after 24 hrs by modified standard CSLI M27-A2 method

[42] = tested on: Klebsiella pneumoniae; assay: microbe, parasite or virus in culture; type: functional; conditions: D 11750/08, 48 h
Description: Antibacterial activity against Klebsiella pneumoniae D 11750/08 after 48 hrs by microdilution broth method

[43] = tested on: Staphylococcus aureus; assay: microbe, parasite or virus in culture; type: functional; conditions: CCM 4516/08, 48 h
Description: Antibacterial activity against Staphylococcus aureus CCM 4516/08 after 48 hrs by microdilution broth method

[44] = tested on: Staphylococcus epidermidis; assay: microbe, parasite or virus in culture; type: functional; conditions: H 6966/08, 24 h
Description: Antibacterial activity against Staphylococcus epidermidis H 6966/08 after 24 hrs by microdilution broth method

[45] = tested on: Pseudomonas aeruginosa; assay: Bactericidal activity against Pseudomonas aeruginosa CCM 1961 after 120 hrs by microdilution broth method; type: functional; conditions: CCM 1961, 120 h, read-out: MBC>99.9
[46] = tested on: Klebsiella pneumoniae; assay: microbe, parasite or virus in culture; type: functional; conditions: J 14368/08, 24 h
Description: Antibacterial activity against Klebsiella pneumoniae J 14368/08 after 24 hrs by microdilution broth method

[47] = tested on: Escherichia coli; assay: Bactericidal activity against Escherichia coli CCM 4517 after 48 hrs by microdilution broth method; type: functional; conditions: CCM 4517, 48 h, read-out: MBC>99.9
[48] = tested on: Trichosporon asahii; assay: microbe, parasite or virus in culture; type: functional; conditions: Trichosporon asahii, 1188, 24 h
Description: Antifungal activity against Trichosporon asahii 1188 after 24 hrs by modified standard CSLI M27-A2 method

[49] = tested on: Trichophyton mentagrophytes; assay: microbe, parasite or virus in culture; type: functional; conditions: Trichophyton mentagrophytes, 445, 120 h
Description: Antifungal activity against Trichophyton mentagrophytes 445 after 120 hrs by modified standard CSLI M27-A2 method

[50] = tested on: Nakaseomyces glabratus; assay: Antifungal activity against Candida glabrata 20/I after 24 hrs by modified standard CSLI M27-A2 method; type: functional
[51] = tested on: Nakaseomyces glabratus; assay: Fungicidal activity against Candida glabrata 20/I after 48 hrs by modified standard CSLI M27-A2 method; type: functional

CCCCCCCCCCCC[n+]1cccc2cc(O)ccc21.[Br-]
15.6 µM: MFC [20] | MIC [33]
1.95 µM: MIC95 [1] | MFC [2] | MFC [3] | MIC [4] | MIC [6] | MFC [12] | MIC95 [14] | MBC [22] | MIC [23] | MBC [26] | MFC [29] | MIC95 [36] | MIC [37] | MIC95 [38] | MIC95 [39] | MIC95 [42] | MIC95 [43] | MBC [47] | MFC [51]
0.95 min: Retention_time [11]
3.91 µM: MBC [25] | MIC [31] | MIC95 [32] | MIC95 [46]
50 µM: IC50 [35]
0.98 µM: MIC [5] | MIC [8] | MIC [15] | MFC [18] | MIC [19] | MIC95 [40] | MIC [41] | MIC [48] | MIC [49] | MIC [50]
7.81 µM: MIC95 [9] | MIC95 [16] | MFC [17] | MBC [27] | MIC [30] | MBC [34] | MBC [45]
9.34 min: Retention_time [10]
0.49 µM: MIC95 [7] | MIC [13] | MIC95 [21] | MBC [24] | MIC95 [28] | MIC95 [44]

CCCCCCCCCCCCCCCCCC[n+]1cccc2cc(O)ccc21.[Br-]
11.47 min: Retention_time [10]
7.06 min: Retention_time [11]

CCCCCCCCCC[n+]1cccc2cc(O)ccc21.[Br-]
0.65 min: Retention_time [11]
8.64 min: Retention_time [10]

CCCCCCCCCCCCCCCC[n+]1cccc2cc(O)ccc21.[Br-]
10.77 min: Retention_time [10]
62.5 µM: MFC [2] | MFC [12] | MFC [29]
125 µM: MFC [3] | MFC [51]
500 µM: MIC95 [14] | MFC [20] | MIC95 [39] | MBC [47]
20 µM: IC50 [35]
> 500 µM: MIC95 [1] | MIC95 [9] | MIC95 [16] | MBC [25] | MBC [26] | MIC95 [32] | MIC95 [42] | MBC [45] | MIC95 [46]
3.3 min: Retention_time [11]
3.91 µM: MIC [5] | MIC [6] | MIC [13] | MFC [18] | MIC [19] | MIC95 [21] | MBC [24] | MBC [27] | MIC95 [36] | MIC95 [38] | MIC95 [40] | MIC [49] | MIC [50]
250 µM: MFC [17]
7.81 µM: MIC [4] | MIC [8] | MIC [15] | MBC [22] | MIC [31] | MIC [33] | MBC [34] | MIC [37] | MIC [41] | MIC [48]
15.6 µM: MIC [23] | MIC [30]
0.49 µM: MIC95 [28] | MIC95 [44]
0.98 µM: MIC95 [7] | MIC95 [43]

CCCCCCCCCCCCCC[n+]1cccc2cc(O)ccc21.[Br-]
10.05 min: Retention_time [10]
1.95 µM: MIC95 [7] | MIC95 [38] | MIC95 [40] | MIC95 [43]
3.91 µM: MIC [6] | MBC [24] | MIC [50]
0.98 µM: MIC95 [28] | MIC95 [44]
1.65 min: Retention_time [11]
125 µM: MIC95 [9] | MFC [20]
32 µM: IC50 [35]
62.5 µM: MIC95 [1] | MBC [25] | MBC [26] | MIC95 [42] | MBC [47]
7.81 µM: MFC [3] | MIC [5] | MIC [13] | MIC [15] | MIC [19] | MIC95 [21] | MBC [34] | MIC95 [36] | MIC [49]
250 µM: MIC95 [16] | MFC [17] | MBC [45]
31.2 µM: MFC [2] | MIC95 [14] | MIC [30] | MIC [31] | MIC95 [32] | MIC [33] | MIC [37] | MIC95 [39] | MIC95 [46]
15.6 µM: MIC [4] | MIC [8] | MFC [12] | MFC [18] | MBC [22] | MIC [23] | MBC [27] | MFC [29] | MIC [41] | MIC [48] | MFC [51]
